Measured values: BindingDB's records for doi:10.1007/s00044-010-9334-1 (n/a, 2011)

Assay: Inhibition of microtubule polymerisation in Rattus norvegicus (rat) A10 cells

| EC50 [µM] | SMILES |
| --- | --- |
| 2.9 | COc1cc(OC)c(C2C=C(c3cc(OC)ccc3OC)NC(=S)N2)c(OC)c1 (configuration not stated) |
| 4.4 | COc1ccc(C2C=C(c3cc(OC)c(OC)c(OC)c3)NC(=S)N2)cc1O (configuration not stated) |
